Values after ≈ are worked out from the molar mass of the structure shown.
Legend:
[1] = test system: L929 mouse fibroblast cells; test: inhibition of proliferation, CyQUANT cell proliferation test; format: cell-based; details: Mus musculus, L929, 120 h, 5 days
Method: (§1) The cytotoxicity of 7-O-malonyl macrolactin A was compared to that of 7-O-succinyl macrolactin A and macrolactin A in vitro with respect to the inhibition of the proliferation of L929 mouse fibroblast cells or the human epithelial cell line HeLa.
(§2) For the cell culture, the HeLa cells were cultivated in low-glucose DMEM medium (Gibco), and the L929 cells in high-glucose DMEM medium. Both were supplemented with 10% by volume foetal calf serum (Gibco) at 37° C. in an atmosphere containing 5% CO2. The cells were extracted from stock cultures by means of trypsinization with EDTA (HeLa) or without EDTA (L929), then counted and diluted to 2×10^5 cells/ml. For the tests, microtitre plates (Nunc.) comprising 96 depressions were plated out in serial dilution without or in the presence of the test compounds or methanol. Determination of morphological alterations of the cells was carried out by means of phase contrast microscopy after 1, 2 and 5 days incubation.
(§3) After 5 days cultivation, cell counts were determined by the CyQUANT cell proliferation test (Molecular Probes), which is a highly sensitive microtitre plate test based on fluorescence. The test employs the dye CyQUANT, which, by binding to cellular nucleic acids, enhances fluorescence, which can then be measured by fluorescein excitation. The emission of fluorescence by the dye-nucleic acid complex correlated linearly with the cell count. For test purposes, the residue was carefully removed after 5 days incubation, the cells washed with PBS (phosphate buffered saline solution), the buffer removed and the cells frozen at −80° C. For the test, the cells were thawed at ambient temperature and lysated in a buffered solution containing the dye CyQUANT, in accordance with manufacturer's instructions. Fluorescence was measured by means of a fluormetric microtitre-plate reader (Titertex Fluorskan II) (excitation at 480 nm, emission at 520 nm). The […] were used to calculate the percentage of cellular proliferation in medium both alone and in the presence of serial dilutions of methanol and the macrolactin compounds. […] Proliferation was measured by means of the fluorescence-based test CyQUANT for determining viable cell counts. Table 5 illustrates the relative inhibition of proliferation as compared to a control culture comprising fresh medium without the addition of a macrolactin.

[2] = test system: human epithelial cell line HeLa; test: as above; format: cell-based
Method: as §1, §2, §3

B. cepacia SCV 141 [3] = test: MIC / MBC in liquid culture; format: cell-based, Burkholderia cepacia; details: Burkholderia cepacia
Description: (§4) 7-O-malonyl macrolactin A was not effective against some of the gram-negative bacteria tested by the inventors.

B. cepacia WT139 = test: MIC / MBC in liquid culture; format: cell-based, Burkholderia cepacia
Description: as §4

Burkholderia cepacia SCV = test: electron microscopy of cell division (FIG. 4); format: cell-based; details: 128 μg/ml, 4 hours shake culture
Method: FIG. 4 a) to c) are electron microscope photographs of Burkholderia cepacia SCV after 4 hours growth without antibiotic and d), e) and f) in the presence of 128 μg/ml 7-O-malonyl macrolactin A;
It is thought that 7-O-malonyl macrolactin A inhibits the division of bacterial cells, which interrupts the proliferation thereof.
The electron microscope photographs moreover elucidate the bacteriostatic effect of 7-O-malonyl macrolactin A against gram-negative bacteria, an example whereof is the cell division of Burkholderia cepacia. Thus, FIGS. 4a, b and c show Burkholderia cepacia SCV (clinical isolate) in a shake culture without the addition of antibiotic ingredients (control) and FIGS. 4d, e and f after 4 hours growth in a shake culture in the presence of 128 μg/ml 7-O-malonyl macrolactin A. In the control culture, white arrowheads point to the cell division planes and the transverse walls in connection therewith. In the case of the gram-negative cells treated with 7-O-malonyl macrolactin A, (FIGS. 4e and f) black arrows indicate the cell division planes and the unnatural protuberances.

E. faecalis ATCC 29212 = test: agar diffusion method, inhibition zone; format: cell-based, Enterococcus faecalis; details: Enterococcus faecalis, ATCC29212; E. faecalis ATCC 29212; MH agar, 18 hours at 37° C.; per disk 10 μl crude extract, 50 μg macrolactin, 78 μg erythromycin, 30 μg vancomycin, 10 μg ampicillin
Method: (§5) The agar diffusion method employing Mueller-Hinton (MH) agar (Difco Laboratories) was used to determine effectiveness against bacteria and yeasts. Sterile paper disks (Schleicher & Schüell, Germany) were seeded with 10 μl crude extract or with a solution of purified macrolactin (final compound concentration on the disk 50 μg) and then placed on the surface of MH-agar plates that had been seeded beforehand with a suspension of overnight culture of the test microorganisms at a concentration of 10^5 cells/ml.

B. cepacia SCV 141 [4] = test: agar diffusion method, inhibition zone; format: cell-based, Burkholderia cepacia; details: 18 hours at 37° C., per disk 10 μl crude extract, 50 μg macrolactin, 78 μg erythromycin, 10 μg ampicillin
Method: as §5
The B. cepacia strain used, which is a clinical isolate from a cystic fibrosis patient, forms small colonies (SCV 141).

[5] = test system: Staphylococcus aureus MRSA 3; test: kinetics of growth at sub-MIC concentrations (FIG. 1B); format: cell-based; details: 1 or 4 μg/ml
Method: Investigation of the bacteriostatic activity of 7-O-malonyl macrolactin A required testing the effects of sub-MIC concentrations. […] 24 hours after treatment, the titre of viable cells was reduced by a factor of 100 as compared to the control without 7-O-malonyl macrolactin A.
• FIG. 1A y-axis: Log CFU (Colony Forming Units) Cells/ml • x-axis: Time (HRS) • FIG. 1B y-axis: Log CFU (Colony Forming Units) Cells/ml • x-axis: Time (HRS) • FIG. 1C: y-axis: Log CFU (Colony Forming Units) Cells/ml • x-axis: Time (HRS) • FIG. 1D: y-axis: Log CFU (Colony Forming Units) Cells/ml • x-axis: Time (HRS) • FIG. 1E: y-axis: Log CFU (Colony Forming Units) Cells/ml • x-axis: Time (HRS) • FIG. 1F: y-axis: Log CFU (Colony Forming Units) Cells/ml • x-axis: Time (HRS) • FIG. 5A: y-axis: % Inhibition • x-axis Concentration μg/ml • FIG. 5B: y-axis: % Inhibition • x-axis Concentration μg/ml

`CC1CCC/C=C/C=C/C(O)CC(O)C/C=C\C=C\C(OC(=O)CC(=O)O)C/C=C/C=C\C(=O)O1` (centres unmarked) [7-O-malonyl macrolactin A] gave an inhibition at 3.9 µg/mL ([1]; compound concentration 3.9 μg/ml) of 0%, an inhibition at 7.8 µg/mL ([1]; compound concentration 7.8 μg/ml) of 0% and an inhibition at 15.6 µg/mL ([1]; compound concentration 15.6 μg/ml) of roughly 32%. It also gave an inhibition at 31.25 µg/mL ([1]; compound concentration 31.25 μg/ml) of 80%, an inhibition at 56.5 µg/mL ([1]; compound concentration 56.5 μg/ml) of 86% and an inhibition at 125 µg/mL ([1]; compound concentration 125 μg/ml) of 84%. For the same compound, the “Inhibition of proliferation” value ([2]; 62.5 μg/ml, CyQUANT test) was “practically complete inhibition of growth”, the inhibition at 3.9 µg/mL ([2]; Homo sapiens, 120 h, compound concentration 3.9 μg/ml, 5 days) was 0% and the inhibition at 7.8 µg/mL ([2]; Homo sapiens, 120 h, compound concentration 7.8 μg/ml, 5 days) was 0%. For the same compound, the inhibition at 15.6 µg/mL ([2]; Homo sapiens, 120 h, compound concentration 15.6 μg/ml, 5 days) was 0%, the inhibition at 31.25 µg/mL ([2]; Homo sapiens, 120 h, compound concentration 31.25 μg/ml, 5 days) was 62% and the inhibition at 56.5 µg/mL ([2]; Homo sapiens, 120 h, compound concentration 56.5 μg/ml, 5 days) was 93%. For the same compound, the inhibition at 125 µg/mL ([2]; Homo sapiens, 120 h, compound concentration 125 μg/ml, 5 days) was 100%, the Inhibition of proliferation ([2]; compound concentration 15.6 μg/ml, 5 days) was “failed to inhibit the proliferation” and the Inhibition of proliferation ([2]; compound concentration 31.25 μg/ml, 5 days) was “capable of inhibiting the proliferation”. The MBC (B. cepacia SCV 141 [3]; SCV141, read-out: MBC (minimal bacteriostatic or fungistatic concentration)) was 32 mg/L (≈ 65.5 µM), the MIC (B. cepacia SCV 141 [3]; SCV141, read-out: MIC (minimal inhibitory concentration)) was 128 mg/L (≈ 262 µM) and the “MBC (minimal bacteriostatic or fungistatic concentration)” value (B. cepacia WT139) was “not observed”. The “MIC (minimal inhibitory concentration)” value (B. cepacia WT139) was greater than 128 mg/L, the MIC (B. cepacia WT139; Burkholderia cepacia, read-out: MIC (minimal inhibitory concentration)) was greater than 128 mg/L and the “effect on cell division, electron microscope” value (Burkholderia cepacia SCV) was “anomalously sized cells were also evident”. The zone of inhibition at 50 µg/disc (E. faecalis ATCC 29212) was 25 mm, the zone of inhibition at 50 µg/disc (B. cepacia SCV 141 [4]; Burkholderia cepacia, SCV141, MH agar) was 15 mm and the Inhibition zone (B. cepacia SCV 141 [4]; MH agar) was “produced an inhibition zone”. For the same compound, the “titre of viable cells reduced by a factor, compared to control” value ([5]; 24 hours after treatment) was 100 and the “effect on kinetics of growth” value ([5]; after 4 hours) was “almost completely inhibited”.
